From US5273979A, “C-31 desmethyl FR-900520 cyclic hemiketal immunosuppressant agent” (Merck & Co., Inc., priority 1991, dated 1993)
pIC50: −log10 of the molar value. “Also recorded” adds a separate entry of the source. Where two headings read alike, the source gives them in different places.

How the values were obtained:
[1] = system: Splenic T-cells stimulated with ionomycin + PMA; test: T-cell proliferation assay (ionomycin plus PMA induced T-cell stimulation assay); assay type: cell-based, mouse
Procedure: Cells were pelleted by centrifugation at 1500 rpm for 8 minutes. Contaminating red cells were removed by treating the pellet with ammonium chloride lysing buffer (GIBCO) for 2 minutes at 4° C. Cold medium was added and cells were again centrifuged at 1500 rpm for 8 minutes. T lymphocytes were then isolated by separation of the cell suspension on nylon wool columns as follows: Nylon wool columns were prepared by packing approximately 4 grams of washed and dried nylon wool into 20 ml plastic syringes. The columns were sterilized by autoclaving at 250° F. for 30 minutes. Nylon wool columns were wetted with warm (37° C.) culture medium and rinsed with the same medium. Washed spleen cells resuspended in warm medium were slowly applied to the nylon wool. The columns were then incubated in an upright position at 37° C. for 1 hour. Non-adherent T lymphocytes were eluted from the columns with warm culture medium and the cell suspensions were spun as above.
The cell suspension was immediately distributed into 96 well flat-bottom microculture plates (Costar) at 200 μl/well. […] The proliferation of T lymphocytes was assessed by measurement of tritiated thymidine incorporation. After 44 hours of culturing, the cells were pulse-labelled with 2 μCi/well of tritiated thymidine (NEN, Cambridge, Mass.). After another 4 hours of incubation, cultures were harvested on glass fiber filters using a multiple sample harvester. Radioactivity of filter discs corresponding to individual wells was measured by standard liquid scintillation counting methods (Betacounter). Mean counts per minute of replicate wells were calculated and the results expressed as percent inhibition of tritiated thymidine uptake (proliferation) as follows: [formula]

[2] = target: T1, 31-O-desmethylimmunomycin O-methyltransferase (DIMT) (Streptomyces hygroscopicus, UniProt Q9KID5); test: S-adenosyl-L-methionine: 31-O-desmethylimmunomycin O-methyltransferase (DIMT) assay; assay type: biochemical, Streptomyces hygroscopicus var. ascomyceticus
T1 construct: cell-free extract, DEAE-Sepharose pool, or second MonoQ preparation (kinetics)
T1 sequence (Q9KID5 1-260): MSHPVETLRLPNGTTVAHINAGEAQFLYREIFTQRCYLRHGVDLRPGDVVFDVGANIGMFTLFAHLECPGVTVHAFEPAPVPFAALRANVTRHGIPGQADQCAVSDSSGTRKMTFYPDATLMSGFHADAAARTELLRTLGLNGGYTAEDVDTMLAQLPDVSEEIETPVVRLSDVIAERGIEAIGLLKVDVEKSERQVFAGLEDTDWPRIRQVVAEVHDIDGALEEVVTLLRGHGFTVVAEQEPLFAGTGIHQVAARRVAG
Procedure: The assay was carried out in 1 ml. mixture containing 0.025 mM 31-desmethylimmunomycin, 1 mM MgSO4 and different quantities of the enzyme source in 50 mM phosphate buffer, pH 7.5. Reaction was initiated by the addition of 1 nmole of ^14 C-SAM (S-adenosyl-L-[methyl-^14 C] methionine with the specific activity of 46 mCi/mmole. Incubation of the complete mixture was carried out at 34° C. for 20 minutes and the reaction was terminated by the addition of ethyl acetate. Product of the reaction was extracted with 2 ml of ethyl acetate and 1 ml of the extract was used for TLC and HPLC analysis. For the analysis of the radioactive reaction product (immunomycin), the ethyl acetate extract was spiked with the standard immunomycin and subjected to the TLC with a plate having plastic support. The plastic sheet was developed in chloroform:methanol (9:1) and area showing standard immunomycin under UV-light was cut and the radioactivity in the cut-strip was measured. The amount of the product formed was calculated from the measured radioactivity. For the HPLC analysis of the product of the enzyme reaction, several enzymatic reaction mixtures were pooled and the extract was subjected to the TLC analysis as above. The area on the silica gel plate showing the band having an Rf value identical with the standard immunomycin was scraped and eluted with ethyl acetate. The ethyl acetate extract was washed with water, dried under nitrogen and the residue was subjected to the HPLC analysis on Partisil 5-ODS-3 column with acetonitrile:water:phosphoric acid (65:35:0.1) as the eluting solvent. One milliliter fractions were collected and a portion of each fraction was examined for the radioactivity.
Examination of the optimal temperature, pH and metal requirement of the DIMT activity was carried out on the enzyme preparation obtained from DEAE-Sepharose column. For kinetic analysis, a preparation which had been purified through a second MonoQ column chromatography was utilized.

Inhibition of DIMT activity (result in words) [2] | Structure (SMILES) | Inhibition of T-cell activation (result in words) [1] | Inhibition of DIMT activity (result in words) ([2]; crude extract) | other results
– | CC[C@@H]1C=C2COC1(O)C[C@H](O)[C@@H](C)[C@@H](/C(C)=C/[C@@H]1CC[C@@H](O)[C@H](OC)C1)OC(=O)[C@@H]1CCCCN1C(=O)C(=O)[C@]1(O)O[C@H]([C@@H](OC)C[C@@H](C)C2)[C@@H](OC)C[C@H]1C [Compound II] | positive inhibition of T-cell activation; also recorded: positive results | – | –
– | CC[C@@H]1C=C2COC1(O)C[C@H](O)[C@@H](C)[C@@H](/C(C)=C/[C@@H]1CC[C@@H](O)[C@H](O)C1)OC(=O)[C@@H]1CCCCN1C(=O)C(=O)[C@]1(O)O[C@H]([C@@H](OC)C[C@@H](C)C2)[C@@H](OC)C[C@H]1C [Compound I] | positive inhibition of T-cell activation | – | Activity versus the FK-506 immunosuppressive activity (result in words) [1]: antagonist activity; Reversal of inhibition of T-cell proliferation by IL2 ([1]; 50 units/ml recombinant IL2 added at the initiation of culture): reversed; pIC50 ([1]; Mus musculus, T-cell, general range, read-out: IC50, generally in the range): 7.74 to 8.00
major inhibition | Nc1ncnc2c1ncn2[C@@H]1O[C@H](CSCC[C@H](N)C(=O)O)[C@@H](O)[C@H]1O [S-adenosyl-homocysteine (SAH), S-adenosyl-homocysteine] | – | – | –
– | N.N.O=S(=O)(O)O [ammonium sulfate] | – | inhibited | –
major inhibition | Nc1ncnc2c1ncn2[C@@H]1O[C@H](C[C@@H](N)CC[C@H](N)C(=O)O)[C@@H](O)[C@H]1O [sinefungin] | – | – | –

Structure (SMILES) | Inhibition of DIMT activity (result in words) [2] | Inhibition of T-cell activation (result in words) [1] | Inhibition of DIMT activity (result in words) ([2]; crude extract) | other results
O=C(O)CN(CCN(CC(=O)O)CC(=O)O)CC(=O)O [EDTA] | major inhibition | – | completely inhibited | –
